Patent US20240391923A1, “METHIONINE ADENOSYLTRANSFERASE 2A INHIBITOR FOR TREATING MTAP DELETION-TYPE CANCER” (SUZHOU GENHOUSE BIO CO., LTD., priority 2022, published 2024)
Where two headings read alike, the source gives them in different places.

Legend:
[1] = tested on: SDMA in human colon cancer cell line HCT116; experiment: Cell symmetric dimethylarginine (SDMA) test, In-cell Western, HCT116 (MTAP wild-type); type: cell-based; conditions: Homo sapiens, HCT-116, 96 h
Description: MAT2A catalyzes the reaction of L-methionine and ATP to generate SAM, inorganic phosphonic acid, and inorganic diphosphonic acid. SAM is an important methyl donor, and is a substrate of arginine methyltransferase 5 (PRMT5). PRMT5 catalyzes SDMA modification of multiple proteins within a cell. The intracellular SDMA modification level was detected by ICW (In-cell Western), and the inhibition of the test compound on the enzymatic activity of intracellular MAT2A was indirectly reflected.
In the present application, the human colon cancer cell line HCT116 and the corresponding HCT116-MTAP-knockout cell line were seeded into a 96-well cell culture plate at an appropriate cell density. After 24 h, the cells were treated using the test compounds diluted 1:4 fold at the highest concentration of 6 μM for 6 gradients, and a DMSO treatment group was set up separately. The cells were cultured in a 37° C./5% CO2 incubator for 4 days. To test the inhibitory activity of the test compounds against tumor cell SDMA, the medium was discarded, and the plate was washed 3 times with PBST. 4% paraformaldehyde was then used at room temperature for fixation for 20 min. The fixation solution was discarded, the plate was washed 3 times with PBST, and a special blocking solution was added to each well for blocking at room temperature for 2 h. The blocking solution was discarded. After the plate was washed 3 times with PBST, the plate was incubated with SDMA antibody at 4° C. overnight. The next day, the plate was washed 3 times with PBST. The secondary antibody and DRAQ5 were diluted to an appropriate concentration with the blocking solution, and incubated at room temperature for 2 h; the plate was washed 3 times with PBST, and the fluorescence signals at 700 nm and 800 nm were detected using a Li—COR Odyssey two-color near-infrared laser imager.
The data was then processed. After the corresponding background value was subtracted from each well, statistical analysis was performed on the 800 nm/700 nm ratio for each well, a sigmoidal dose-inhibition curve was plotted using a non-linear regression model, and IC50 values were fitted and calculated. Inhibition Rate (%)=(1−SDMA dose/SDMA DMSO control)*100. SDMA dose is the value of the drug treatment group, and SDMA DMSO control is the value of the DMSO control group.

[2] = target: MAT2A recombinant protein (Homo sapiens, UniProt P31153); experiment: MAT2A inhibitory activity (malachite green colorimetric enzyme assay); type: biochemical
Description: MAT2A catalyzes the reaction of L-methionine and ATP to generate S-adenosylmethionine (SAM), inorganic phosphonic acid, and inorganic diphosphonic acid. Malachite green reacts with inorganic phosphonic acid to generate a green product, and the enzyme activity of MAT2A can be indirectly reflected by detecting the content of the inorganic phosphonic acid in a sample.
The test compounds were formulated using DMSO and diluted 1:3 diluted through 10 concentration points to give a final starting concentration in the reaction system of 1000 nM. The test compounds at different concentrations described above were transferred to a 384-well plate. Experimental buffer (50 mM HEPES pH 7.5, 50 mM KCl, 10 mM MgCl2, 10 mM DTT) was prepared. 2×MAT2A recombinant protein was prepared using the buffer and added to a 384-well plate. A mixed solution of 2×L-methionine and ATP was prepared using the buffer, and added to a 384-well plate. The enzymatic reaction was started, and the reaction was carried out at room temperature for 60 min. 20 μL of a colorimetric detection reagent was added to the above system, and incubated at room temperature for 15 min. The absorbance at 630 nm was measured. The inhibition rate of the compound on the enzyme activity was calculated, and the inhibition rate value and the logarithm value of the compound concentration were fitted using non-linear regression (dose response-variable slope) to give the IC50 value of the test compound.

[3] = tested on: SDMA in HCT116-MTAP-knockout cell line; experiment: Cell symmetric dimethylarginine (SDMA) test, In-cell Western, HCT116-MTAP-knockout; type: cell-based; conditions: Homo sapiens, 96 h
[4] = IC50 score class, read-out: Cell 96 h SDMA Inhibition (HCT116-MTAP+/+) (score)
[5] = read-out: Cell 96 h SDMA inhibition (HCT116-MTAP+/+)
[6] = IC50 score class, read-out: MAT2A Inhibition (score)
[7] = IC50 score class, read-out: Cell 96 h SDMA Inhibition (HCT116-MTAP−/−) (score)
[8] = read-out: Cell 96 h SDMA Inhibition (HCT116-MTAP−/−)

MAT2A recombinant protein, sequence (P31153 whole entry): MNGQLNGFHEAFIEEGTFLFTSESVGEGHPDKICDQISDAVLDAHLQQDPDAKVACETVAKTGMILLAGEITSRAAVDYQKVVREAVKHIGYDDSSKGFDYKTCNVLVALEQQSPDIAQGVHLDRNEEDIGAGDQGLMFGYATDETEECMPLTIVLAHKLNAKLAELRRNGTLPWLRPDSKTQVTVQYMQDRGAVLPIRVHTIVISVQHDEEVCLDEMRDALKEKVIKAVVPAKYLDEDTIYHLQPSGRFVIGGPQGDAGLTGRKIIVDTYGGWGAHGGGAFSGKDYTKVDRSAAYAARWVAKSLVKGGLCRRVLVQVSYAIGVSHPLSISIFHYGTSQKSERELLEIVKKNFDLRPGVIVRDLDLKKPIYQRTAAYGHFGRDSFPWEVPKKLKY

| IC50 [1, 4] | IC50 [1, 5] | IC50 [2, 6] | IC50 ([2]; read-out: MAT2A Inhibition) | IC50 [3, 7] | IC50 [3, 8] | SMILES |
| --- | --- | --- | --- | --- | --- | --- |
| > 3000 nM | > 10000 nM |  |  |  |  | O=c1c2nn(C(F)F)cc2c2cc(F)c(Cl)cc2n1-c1cccnc1C1CC1 (single isomer, unassigned) [Compound B399] |
|  |  | > 1000 nM | > 1000 nM |  |  | CCn1cc2c(n1)c(=O)n(-c1ccncc1)c1cc(Cl)ccc21 [Compound B10] |
|  |  | > 1000 nM | > 1000 nM |  |  | CCn1cc2c(n1)c(=O)n(-c1ccc(OC)cc1)c1cc(Cl)ccc21 [Compound B11] |
|  |  | > 1000 nM | > 1000 nM |  |  | CCn1cc2c(n1)c(=O)n(-c1cccc(C(F)(F)F)c1)c1cc(Cl)ccc21 [Compound B15] |
|  |  | 100 to 1000 nM | 125 nM |  |  | CCn1cc2c(n1)c(=O)n(-c1cccnc1)c1cc(OC(F)(F)F)ccc21 [Compound B19] |
|  |  | 100 to 1000 nM | 908 nM |  |  | Cc1nnc2c(=O)n(-c3cccnc3)c3cc(Cl)ccc3n12 [Compound B23] |
|  |  | 100 to 1000 nM | 115 nM |  |  | CCn1nc2c(=O)n(-c3cccnc3)c3cc(Cl)ccc3c2c1C(F)(F)F [Compound B24] |
|  |  | < 100 nM | 92.8 nM |  |  | CCn1nc2c(=O)n(-c3cccnc3)c3cc(Cl)ccc3c2c1C(F)F [Compound B25] |
|  |  | 100 to 1000 nM | 349 nM |  |  | Cn1nc2c(=O)n(-c3cccnc3)c3cc(Cl)ccc3c2c1C(F)(F)F [Compound B26] |
|  |  | 100 to 1000 nM | 488 nM |  |  | O=c1c2nccnc2c2ccc(Cl)cc2n1-c1cccnc1 [Compound B50] |
| 200 to 1000 nM | 298 nM | < 100 nM | 43.9 nM | < 200 nM | 14.6 nM | Cc1ncccc1-n1c(=O)c2nn(C)cc2c2ccc(C3CC3)nc21 [Compound B75] |
| 1000 to 3000 nM | 2030 nM |  |  | 200 to 1000 nM | 813 nM | Cn1cc2c(n1)c(=O)n(-c1cccnc1)c1cc(OC(F)(F)F)ccc21 [Compound B78] |
|  |  | 100 to 1000 nM | 483 nM |  |  | Cn1cc2c(n1)c(=O)n([C@H]1CC[C@H](O)CC1)c1cc(Cl)ccc21 [Compound B109] |
|  |  | < 100 nM | 41.9 nM |  |  | Cn1cc2c(n1)c(=O)n(Cc1ccn[nH]1)c1cc(Cl)ccc21 [Compound B117] |
| > 3000 nM | 6800 nM | < 100 nM | 37.4 nM | 200 to 1000 nM | 775 nM | Cn1cc2c(n1)c(=O)n(-c1cccnc1)c1cc(Cl)c(F)cc21 [Compound B139] |
| > 3000 nM | 17400 nM | < 100 nM | 71.8 nM | 200 to 1000 nM | 228 nM | Cn1cc2c(n1)c(=O)n(-c1cccc(O)c1)c1cc(Cl)ccc21 [Compound B152] |
|  |  | < 100 nM | 99.2 nM |  |  | Cn1ccc(Cn2ncc3c4ccc(Cl)cc4n(-c4cccnc4)c(=O)c32)n1 [Compound B168] |
|  |  | < 100 nM | 97.4 nM |  |  | Cn1cc2c(n1)c(=O)n(-c1cccc(O)c1)c1cc(OC(F)(F)F)ccc21 [Compound B169] |
|  |  | 100 to 1000 nM | 220 nM |  |  | O=c1c2c(cnn2CC(F)F)c2ccc(Cl)cc2n1-c1cccnc1 [Compound B170] |
| > 3000 nM | > 3000 nM | < 100 nM | 61.8 nM | 200 to 1000 nM | 818 nM | COc1cc2c3cn(C)nc3c(=O)n(-c3cccnc3)c2cc1Cl [Compound B171] |
|  |  | 100 to 1000 nM | 174 nM |  |  | COc1cccc(-n2c(=O)c3nn(C)cc3c3ccc(C(F)(F)F)nc32)c1 [Compound B184] |
|  |  | 100 to 1000 nM | 379 nM |  |  | COc1ccc(-n2c(=O)c3nn(C)cc3c3ccc(Cl)cc32)cc1 [Compound B185] |

| IC50 [1, 4] | IC50 [1, 5] | IC50 [2, 6] | IC50 ([2]; read-out: MAT2A Inhibition) | IC50 [3, 7] | IC50 [3, 8] | SMILES |
| --- | --- | --- | --- | --- | --- | --- |
|  |  | 100 to 1000 nM | 191 nM |  |  | Cn1cc2c(n1)c(=O)n(-c1ccc(OC(F)F)cc1)c1cc(Cl)ccc21 [Compound B186] |
|  |  | 100 to 1000 nM | 284 nM |  |  | COc1ccc(-n2c(=O)c3nn(C)cc3c3ccc(C(F)(F)F)nc32)cc1 [Compound B187] |
|  |  | 100 to 1000 nM | 133 nM |  |  | Cn1cc2c(n1)c(=O)n(-c1cccc(OC(F)F)c1)c1nc(C(F)(F)F)ccc21 [Compound B190] |
|  |  | < 100 nM | 43.7 nM |  |  | Cn1cc2c(n1)c(=O)n(-c1cccc(C(F)F)c1)c1nc(C(F)(F)F)ccc21 [Compound B194] |
|  |  | < 100 nM | 20 nM |  |  | Cn1cc2c(n1)c(=O)n(-c1c(F)cccc1F)c1nc(C(F)(F)F)ccc21 [Compound B195] |
|  |  | < 100 nM | 90.4 nM |  |  | Cn1cc2c(n1)c(=O)n(Cc1cn[nH]c1)c1nc(C(F)(F)F)ccc21 [Compound B197] |
| > 3000 nM | 15300 nM | < 100 nM | 49.9 nM | 1000 to 3000 nM | 1440 nM | Cn1cc2c(n1)c(=O)n(-c1cncc(F)c1)c1nc(C(F)(F)F)ccc21 [Compound B202] |
|  |  | < 100 nM | 71.1 nM |  |  | Cn1cc2c(n1)c(=O)n(-c1ccn3ccnc3c1)c1cc(Cl)ccc21 [Compound B205] |
|  |  | 100 to 1000 nM | 178 nM |  |  | Cn1cc2c(n1)c(=O)n(-c1ccc3ncoc3c1)c1cc(Cl)ccc21 [Compound B208] |
|  |  | 100 to 1000 nM | 122 nM |  |  | Cn1cc2c(n1)c(=O)n(-c1ccc3ncoc3c1)c1nc(C(F)(F)F)ccc21 [Compound B209] |
|  |  | 100 to 1000 nM | 603 nM |  |  | O=c1c2nn(C3CCOCC3)cc2c2ccc(C(F)(F)F)nc2n1-c1cccnc1 [Compound B210] |
|  |  | < 100 nM | 14.9 nM |  |  | Cn1cc2c(n1)c(=O)n(-c1cccc(NS(C)(=O)=O)c1)c1nc(C(F)(F)F)ccc21 [Compound B214] |
|  |  | 100 to 1000 nM | 237 nM |  |  | Cn1cc2c(n1)c(=O)n([C@@H]1CCCOC1)c1cc(Cl)ccc21 [Compound B230] |
|  |  | < 100 nM | 39.9 nM |  |  | COc1ccc(-n2cc3c(n2)c(=O)n(-c2ccccc2)c2nc(C(F)(F)F)ccc32)cn1 [Compound B231] |
| > 3000 nM | > 3000 nM | < 100 nM | 25.5 nM | 1000 to 3000 nM | 1370 nM | Cn1cc2c(n1)c(=O)n(-c1cccc(C(N)=O)c1)c1nc(C(F)(F)F)ccc21 [Compound B234] |
|  |  | < 100 nM | 102 nM |  |  | Cn1cc2c(n1)c(=O)n(-c1cccnc1)c1nc(Cl)ccc21 [Compound B244] |
|  |  | < 100 nM | 88 nM |  |  | N#Cc1cc2c3cn(C(F)F)nc3c(=O)n(-c3cccc4[nH]ncc34)c2cc1Cl [Compound B283] |
|  |  | 100 to 1000 nM | 188 nM |  |  | COc1ccc(Cn2cc3c(n2)c(=O)n(-c2cccc4[nH]ncc24)c2cc(Cl)c(C#N)cc32)cc1 [Compound B286] |
| > 3000 nM | > 10000 nM |  |  | 200 to 1000 nM | 203 nM | O=c1c2nn(C(F)F)cc2c2cc(F)c(Cl)cc2n1-c1cccnc1C(F)(F)F [Compound B339] |
|  |  | > 1000 nM | > 1000 nM |  |  | Cn1cnc2c(=O)n(-c3cccc4ccccc34)c3cc(Cl)c(C#N)cc3c21 [Compound B378] |
|  |  | > 1000 nM | > 1000 nM |  |  | Cn1cnc2c(=O)n(-c3cccc4cccnc34)c3cc(Cl)c(C#N)cc3c21 [Compound B379] |

| SMILES | IC50 [1, 4] | IC50 [1, 5] | IC50 [2, 6] | IC50 ([2]; read-out: MAT2A Inhibition) | IC50 [3, 7] | IC50 [3, 8] |
| --- | --- | --- | --- | --- | --- | --- |
| Cn1cc2c(n1)c(=O)n(-c1cccnc1)c1cc(Cl)cc(F)c21 [Compound B172] | 1000 to 3000 nM | 2210 nM | < 100 nM | 68.1 nM | 200 to 1000 nM | 771 nM |
